Experimental data: ChEMBL document CHEMBL5303573, “Mapping human microbiome drug metabolism by gut bacteria and their genes” (Nature, 2019)

Experiments:
[1] = The drug is tested on Bifidobacterium breve strain: DSM20213 for biotransformation. The drug concentrations were measured before and after a 12-h incubation by liquid-chromatography-coupled mass spectrometry (LC–MS); details: 2 µM
[2] = The drug is tested on Bifidobacterium longum subsp. Infantis strain: CCUG52486 for biotransformation. The drug concentrations were measured before and after a 12-h incubation by liquid-chromatography-coupled mass spectrometry (LC–MS); details: 2 µM
[3] = The drug is tested on Bifidobacterium ruminantium strain: fecal isolate for biotransformation. The drug concentrations were measured before and after a 12-h incubation by liquid-chromatography-coupled mass spectrometry (LC–MS); details: 2 µM
[4] = The drug is tested on Collinsella aerofaciens strain: ATCC25986 for biotransformation. The drug concentrations were measured before and after a 12-h incubation by liquid-chromatography-coupled mass spectrometry (LC–MS); details: 2 µM
[5] = The drug is tested on Collinsella intestinalis strain: DSM13280 for biotransformation. The drug concentrations were measured before and after a 12-h incubation by liquid-chromatography-coupled mass spectrometry (LC–MS); details: 2 µM
[6] = The drug is tested on Bacteroides dorei strain: DSM17855 for biotransformation. The drug concentrations were measured before and after a 12-h incubation by liquid-chromatography-coupled mass spectrometry (LC–MS); details: phocaeicola dorei, 2 µM
[7] = The drug is tested on Bacteroides fragilis strain: HMW615 for biotransformation. The drug concentrations were measured before and after a 12-h incubation by liquid-chromatography-coupled mass spectrometry (LC–MS); details: 2 µM
[8] = The drug is tested on Bacteroides uniformis strain: ATCC8492 for biotransformation. The drug concentrations were measured before and after a 12-h incubation by liquid-chromatography-coupled mass spectrometry (LC–MS); details: 2 µM
[9] = The drug is tested on Bacteroides xylanisolvens strain: DSM18836 for biotransformation. The drug concentrations were measured before and after a 12-h incubation by liquid-chromatography-coupled mass spectrometry (LC–MS); details: 2 µM
[10] = The drug is tested on Parabacteroides merdae strain: ATCC43184 for biotransformation. The drug concentrations were measured before and after a 12-h incubation by liquid-chromatography-coupled mass spectrometry (LC–MS); details: 2 µM
[11] = The drug is tested on Anaerotruncus colihominis strain: DSM17241 for biotransformation. The drug concentrations were measured before and after a 12-h incubation by liquid-chromatography-coupled mass spectrometry (LC–MS); details: 2 µM
[12] = The drug is tested on Blautia hansenii strain: DSM20583 for biotransformation. The drug concentrations were measured before and after a 12-h incubation by liquid-chromatography-coupled mass spectrometry (LC–MS); details: 2 µM
[13] = The drug is tested on Blautia luti strain: DSM14534 for biotransformation. The drug concentrations were measured before and after a 12-h incubation by liquid-chromatography-coupled mass spectrometry (LC–MS); format: ADME; set-up: dose 2 uM, timepoint 0 vs 12 hours; details: 2 µM
[14] = The drug is tested on Clostridium scindens strain: ATCC35704 for biotransformation. The drug concentrations were measured before and after a 12-h incubation by liquid-chromatography-coupled mass spectrometry (LC–MS); details: 2 µM
[15] = The drug is tested on Enterococcus faecalis strain: V583 for biotransformation. The drug concentrations were measured before and after a 12-h incubation by liquid-chromatography-coupled mass spectrometry (LC–MS); details: 2 µM
[16] = The drug is tested on Eubacterium rectale strain: ATCC33656 for biotransformation. The drug concentrations were measured before and after a 12-h incubation by liquid-chromatography-coupled mass spectrometry (LC–MS); details: agathobacter rectalis, 2 µM
[17] = The drug is tested on Providencia stuartii strain: ATCC25827 for biotransformation. The drug concentrations were measured before and after a 12-h incubation by liquid-chromatography-coupled mass spectrometry (LC–MS); details: 2 µM
[18] = bacteroides thetaiotaomicron, 12 h, 2 µM
Description: The drug is tested on Bacteroides thetaiotaomicron strain: VPI-5482 for biotransformation. The drug concentrations were measured before and after a 12-h incubation by liquid-chromatography-coupled mass spectrometry (LC–MS)

[19] = anaerostipes sp., 12 h, 2 µM
Description: The drug is tested on Anaerostipes sp. strain: fecal isolate for biotransformation. The drug concentrations were measured before and after a 12-h incubation by liquid-chromatography-coupled mass spectrometry (LC–MS)

[20] = The drug is tested on Bacteroides cellulosilyticus strain: DSM14838 for biotransformation. The drug concentrations were measured before and after a 12-h incubation by liquid-chromatography-coupled mass spectrometry (LC–MS); details: 2 µM

SMILES	Bacterial Biotransformation [1]	Bacterial Biotransformation [2]	Bacterial Biotransformation [3]	Bacterial Biotransformation [4]	Bacterial Biotransformation [5]	Bacterial Biotransformation [6]	Bacterial Biotransformation [7]	Bacterial Biotransformation [8]	Bacterial Biotransformation [9]	Bacterial Biotransformation [10]	Bacterial Biotransformation [11]	Bacterial Biotransformation [12]	Bacterial Biotransformation [13]	Bacterial Biotransformation [14]	Bacterial Biotransformation [15]	Bacterial Biotransformation [16]	Bacterial Biotransformation [17]	Bacterial Biotransformation [18]	Bacterial Biotransformation [19]	Bacterial Biotransformation [20]
CN1CCc2c(c3ccccc3n2Cc2ccccc2)C1.CN1CCc2c(c3ccccc3n2Cc2ccccc2)C1.O=S(=O)(O)c1cccc2c(S(=O)(=O)O)cccc12	Compound NOT metabolized	Compound NOT metabolized	Compound NOT metabolized	Compound NOT metabolized	Compound NOT metabolized	Compound NOT metabolized	Compound NOT metabolized	Compound NOT metabolized	Compound NOT metabolized	Compound NOT metabolized	Compound NOT metabolized	Compound NOT metabolized	Compound NOT metabolized	Compound NOT metabolized	Compound NOT metabolized	Compound NOT metabolized	Compound NOT metabolized	Compound NOT metabolized	Compound NOT metabolized	–
CCN(CC)C(=O)C1(c2ccccc2)CC1CN (stereo not drawn)	Compound NOT metabolized	Compound NOT metabolized	Compound NOT metabolized	Compound NOT metabolized	Compound NOT metabolized	Compound NOT metabolized	Compound NOT metabolized	–	Compound NOT metabolized	Compound NOT metabolized	Compound NOT metabolized	Compound NOT metabolized	Compound NOT metabolized	Compound NOT metabolized	Compound NOT metabolized	Compound NOT metabolized	Compound NOT metabolized	Compound NOT metabolized	Compound NOT metabolized	–
CC(C)N(CCC(C(N)=O)(c1ccccc1)c1ccccn1)C(C)C.O=P(O)(O)O (stereo not drawn) [DISOPYRAMIDE PHOSPHATE]	Compound NOT metabolized	Compound NOT metabolized	–	Compound NOT metabolized	Compound NOT metabolized	Compound NOT metabolized	Compound NOT metabolized	–	Compound NOT metabolized	Compound NOT metabolized	Compound NOT metabolized	–	Compound NOT metabolized	Compound NOT metabolized	Compound NOT metabolized	Compound NOT metabolized	Compound NOT metabolized	–	Compound NOT metabolized	Compound NOT metabolized
CN(C)CCOC(C)(c1ccccc1)c1ccccn1.O=C(O)CCC(=O)O (stereo not drawn) [DOXYLAMINE SUCCINATE]	Compound NOT metabolized	Compound NOT metabolized	–	Compound NOT metabolized	Compound NOT metabolized	Compound NOT metabolized	Compound NOT metabolized	Compound NOT metabolized	Compound NOT metabolized	Compound NOT metabolized	Compound NOT metabolized	–	Compound NOT metabolized	Compound NOT metabolized	Compound NOT metabolized	–	Compound NOT metabolized	Compound NOT metabolized	Compound NOT metabolized	Compound NOT metabolized
O=C1NCC2(CCN(CCc3ccccc3)CC2)O1 [FENSPIRIDE]	Compound NOT metabolized	Compound NOT metabolized	–	Compound NOT metabolized	Compound NOT metabolized	Compound metabolized	Compound metabolized	Compound metabolized	Compound NOT metabolized	–	Compound NOT metabolized	–	Compound NOT metabolized	Compound NOT metabolized	Compound NOT metabolized	Compound NOT metabolized	Compound NOT metabolized	Compound metabolized	Compound NOT metabolized	Compound NOT metabolized
CN1C(=O)CC(C)(c2ccccc2)C1=O (stereo not drawn) [METHSUXIMIDE]	Compound NOT metabolized	Compound NOT metabolized	Compound NOT metabolized	Compound NOT metabolized	Compound NOT metabolized	Compound metabolized	–	Compound NOT metabolized	Compound NOT metabolized	Compound NOT metabolized	Compound NOT metabolized	–	Compound NOT metabolized	Compound NOT metabolized	Compound NOT metabolized	–	–	Compound NOT metabolized	Compound NOT metabolized	Compound NOT metabolized
Cc1ccccc1N1C(=O)c2cc(S(N)(=O)=O)c(Cl)cc2NC1C (stereo not drawn) [METOLAZONE]	Compound NOT metabolized	Compound NOT metabolized	Compound NOT metabolized	Compound NOT metabolized	Compound NOT metabolized	–	Compound NOT metabolized	Compound NOT metabolized	Compound NOT metabolized	–	–	–	Compound NOT metabolized	–	Compound NOT metabolized	–	Compound NOT metabolized	Compound NOT metabolized	Compound NOT metabolized	Compound NOT metabolized
CN(C)C(=O)Oc1cccc([N+](C)(C)C)c1.[Br-] [NEOSTIGMINE BROMIDE]	Compound NOT metabolized	Compound NOT metabolized	Compound NOT metabolized	Compound NOT metabolized	Compound NOT metabolized	Compound metabolized	–	Compound metabolized	–	Compound metabolized	Compound NOT metabolized	–	Compound NOT metabolized	Compound NOT metabolized	Compound NOT metabolized	Compound NOT metabolized	Compound NOT metabolized	Compound metabolized	Compound NOT metabolized	Compound NOT metabolized
CCCN1C[C@H](CSC)C[C@@H]2c3cccc4[nH]cc(c34)C[C@H]21.CS(=O)(=O)O [PERGOLIDE MESYLATE]	Compound NOT metabolized	Compound NOT metabolized	Compound NOT metabolized	Compound NOT metabolized	Compound NOT metabolized	Compound NOT metabolized	Compound NOT metabolized	Compound NOT metabolized	Compound NOT metabolized	Compound NOT metabolized	Compound NOT metabolized	Compound NOT metabolized	Compound NOT metabolized	Compound NOT metabolized	Compound NOT metabolized	Compound NOT metabolized	Compound NOT metabolized	Compound NOT metabolized	Compound NOT metabolized	–
